Laboratory results published in article PMC6667604, “Mechanism of action of antimicrobial peptide P5 truncations against Pseudomonas aeruginosa and Staphylococcus aureus” (AMB Express, 2019).
Values after ≈ are worked out from the molar mass of the structure shown. Like-named read-outs stand apart in the source and are kept apart here. Peptide text beside a SMILES is read from it.

How the values were obtained:
S. aureus ATCC 25923 [1] = format: cell-based, Staphylococcus aureus; details: ATCC 25923, 18 h
Protocol: (§1) We detected the antimicrobial activity of peptides against Gram-negative bacteria (P. aeruginosa ATCC 27853 and A. baumannii KCTC 2508) and Gram-positive bacteria (S. aureus ATCC 25923 and B. subtilis KCTC 2217). The minimum inhibitory concentrations (MICs) of the parental and truncated peptides were determined using the microbroth dilution method, as previously described (Jorgensen [1993]). The bacteria were incubated overnight with shaking at 37 °C. The bacteria were diluted to 2 × 10^5 colony forming units (CFU)/mL in Mueller–Hinton broth (MHB) media. The peptides were serially diluted in 10 mM sodium phosphate buffer and then 50 µL of the bacteria and 50 µL of the peptide solutions were mixed and incubated for 18 h at 37 °C. The MICs were measured as the absorbance at 600 nm using a Versa Max microplate reader (Molecular Devices, Sunnyvale, CA, USA). The samples were analyzed in triplicate.
(§2) The effects of various cations on the antimicrobial activity of P5 and the truncated peptides were determined against P. aeruginosa ATCC 27853 and S. aureus ATCC 25923. Bacteria were treated with the peptides in the presence of NaCl (50, 100, and 150 mM), MgCl2 (0.5, 1, and 2 mM), and FeCl3 (1, 4, and 8 µM). The MIC values were the same as those described above.

B. subtilis KCTC 2217 = format: cell-based, Bacillus subtilis
Protocol: as §1

P. aeruginosa ATCC 27853 [2] = format: cell-based, Pseudomonas aeruginosa; details: ATCC 27853, 18 h
Protocol: as §1

A. baumannii KCTC 2508 = format: cell-based, Acinetobacter baumannii
Protocol: as §1

S. aureus ATCC 25923 [3] = format: cell-based, Staphylococcus aureus; details: ATCC 25923, 18 h; remark: listed apart in the source
Protocol: as §1

[4] = tested on: red blood cells (RBCs) from mice; assay: Hemolytic activity; format: cell-based; details: mouse RBCs 8% in PBS, peptide 100 µM, 1 h at 37 °C, absorbance 414 nm, 0.1% Triton X-100 positive control
Protocol: To determine the hemolytic activities of the peptides against red blood cells (RBCs) from mice, RBCs were centrifuged at 2000×g for 5 min and washed with 1 mL of phosphate-buffered saline solution (PBS) three times. The supernatant was removed and the RBCs were diluted to 8% in PBS. After serial dilution, 60 µL of the RBCs and peptides were added to a 96-well plate and incubated at 37 °C for 1 h. The plate was centrifuged at 1500×g for 10 min, 100 µL of the supernatant was transferred to a new plate, and the absorbance was measured at 414 nm (Versa-Max enzyme-linked immunosorbent assay (ELISA) reader). Additionally, 0.1% Triton X-100 and PBS were used as positive and negative controls, respectively. The hemolytic activity percentage (hemolysis rate) was calculated using the following equation (Han et al. [2016]): Hemolysis percentage%=peptide solution-negative control/positive control-PBS×100.

P. aeruginosa ATCC 27853 [5] = format: cell-based, Pseudomonas aeruginosa; details: ATCC 27853, 18 h; remark: listed apart in the source
Protocol: as §1, §2

HaCaT cells = assay: Cytotoxicity, MTT assay; format: cell-based, human; details: 24 h, 1.56 µM
Protocol: Human skin epithelial cells (HaCaT cells) were cultured in Dulbecco’s modified Eagle’s medium (DMEM) with 10% fetal bovine serum (FBS) at 37 °C in 5% CO2. Cytotoxicity was determined using the MTT assay (Deng et al. [2015]). HaCaT cells were plated at 2 × 10^4 cells/well in 96-well plates. After overnight incubation, the peptides were added at various concentrations for 24 h, and then 5 mg/mL of MTT was added to each well. After 1 h, the supernatant was removed and 100 μL of DMSO was added to each well to dissolve the formazan crystals. Cytotoxicity was measured at an absorbance of 570 nm using a microplate reader (VersaMax). The cell viability percentage (cell viability rate) was calculated using the following equation (Kim et al. [2018]): Cell viability percentage%=peptide treated sample[…]×100.

Structure (SMILES): CC(C)C[C@H](NC(=O)[C@H](CCCCN)NC(=O)[C@H](CCCCN)NC(=O)[C@H](CC(C)C)NC(=O)[C@H](CC(C)C)NC(=O)[C@H](CCCCN)NC(=O)[C@H](CCCCN)NC(=O)[C@H](CC(C)C)NC(=O)[C@H](CC(C)C)NC(=O)[C@@H]1CCCN1C(=O)[C@H](CCCCN)NC(=O)[C@@H](N)CCCCN)C(N)=O [P5-NT3] (H-KKPLLKKLLKKL-NH2)
- MIC (S. aureus ATCC 25923 [1]): 0.78 µM (≈ 1.13 µg/mL)
- MIC (B. subtilis KCTC 2217; KCTC 2217, 18 h): 1.56 µM (≈ 2.26 µg/mL)
- MIC (P. aeruginosa ATCC 27853 [2]): 6.25 µM (≈ 9.06 µg/mL)
- MIC (A. baumannii KCTC 2508; KCTC 2508, 18 h): 25 µM (≈ 36.2 µg/mL)
- MIC (S. aureus ATCC 25923 [3]): 1.56 µM (≈ 2.26 µg/mL)

Structure (SMILES): CC(C)C[C@H](NC(=O)[C@H](CCCCN)NC(=O)[C@H](CCCCN)NC(=O)[C@H](CC(C)C)NC(=O)[C@H](CC(C)C)NC(=O)[C@H](CCCCN)NC(=O)[C@H](CCCCN)NC(=O)[C@H](CC(C)C)NC(=O)[C@H](CC(C)C)NC(=O)[C@@H]1CCCN1C(=O)[C@H](CCCCN)NC(=O)[C@H](CCCCN)NC(=O)[C@H](CC(C)C)NC(=O)[C@H](CC(C)C)NC(=O)[C@H](CCCCN)NC(=O)[C@H](CCCCN)NC(=O)[C@H](Cc1c[nH]c2ccccc12)NC(=O)[C@@H](N)CCCCN)C(N)=O [P5] (H-KWKKLLKKPLLKKLLKKL-NH2)
- hemolysis [4]: approximately 14%
- MIC (S. aureus ATCC 25923 [1]): 1.56 µM (≈ 3.5 µg/mL)
- MIC (B. subtilis KCTC 2217; KCTC 2217, 18 h): 1.56 µM (≈ 3.5 µg/mL)
- MIC (P. aeruginosa ATCC 27853 [2]): 3.13 µM (≈ 7.03 µg/mL)
- MIC (A. baumannii KCTC 2508; KCTC 2508, 18 h): 1.56 µM (≈ 3.5 µg/mL)
- MIC (S. aureus ATCC 25923 [3]): 1.56 µM (≈ 3.5 µg/mL)

Structure (SMILES): CC(C)C[C@H](NC(=O)[C@H](CC(C)C)NC(=O)[C@@H]1CCCN1C(=O)[C@H](CCCCN)NC(=O)[C@H](CCCCN)NC(=O)[C@H](CC(C)C)NC(=O)[C@H](CC(C)C)NC(=O)[C@H](CCCCN)NC(=O)[C@H](CCCCN)NC(=O)[C@H](Cc1c[nH]c2ccccc12)NC(=O)[C@@H](N)CCCCN)C(=O)N[C@@H](CCCCN)C(N)=O [P5-CT3] (H-KWKKLLKKPLLK-NH2)
- MIC (B. subtilis KCTC 2217; KCTC 2217, 18 h): 6.25 µM (≈ 9.51 µg/mL)
- MIC (P. aeruginosa ATCC 27853 [2]): > 25 µM
- MIC (P. aeruginosa ATCC 27853 [5]): > 25 µM
- MIC (A. baumannii KCTC 2508; KCTC 2508, 18 h): > 25 µM
- MIC (S. aureus ATCC 25923 [3]): 3.13 µM (≈ 4.76 µg/mL)

Structure (SMILES): CC(C)C[C@H](NC(=O)[C@H](CCCCN)NC(=O)[C@H](CCCCN)NC(=O)[C@H](CC(C)C)NC(=O)[C@H](CC(C)C)NC(=O)[C@H](CCCCN)NC(=O)[C@H](CCCCN)NC(=O)[C@H](CC(C)C)NC(=O)[C@H](CC(C)C)NC(=O)[C@@H]1CCCN1C(=O)[C@H](CCCCN)NC(=O)[C@H](CCCCN)NC(=O)[C@H](CC(C)C)NC(=O)[C@H](CC(C)C)NC(=O)[C@H](CCCCN)NC(=O)[C@@H](N)CCCCN)C(N)=O [P5-NT1] (H-KKLLKKPLLKKLLKKL-NH2)
- MIC (S. aureus ATCC 25923 [1]): 0.78 µM (≈ 1.51 µg/mL)
- MIC (B. subtilis KCTC 2217; KCTC 2217, 18 h): 1.56 µM (≈ 3.01 µg/mL)
- MIC (P. aeruginosa ATCC 27853 [2]): 1.56 µM (≈ 3.01 µg/mL)
- MIC (A. baumannii KCTC 2508; KCTC 2508, 18 h): 3.13 µM (≈ 6.05 µg/mL)
- MIC (S. aureus ATCC 25923 [3]): 1.56 µM (≈ 3.01 µg/mL)

Structure (SMILES): CC(C)C[C@H](NC(=O)[C@H](CCCCN)NC(=O)[C@H](CCCCN)NC(=O)[C@H](CC(C)C)NC(=O)[C@H](CC(C)C)NC(=O)[C@@H]1CCCN1C(=O)[C@H](CCCCN)NC(=O)[C@H](CCCCN)NC(=O)[C@H](CC(C)C)NC(=O)[C@H](CC(C)C)NC(=O)[C@H](CCCCN)NC(=O)[C@H](CCCCN)NC(=O)[C@H](Cc1c[nH]c2ccccc12)NC(=O)[C@@H](N)CCCCN)C(N)=O [P5-CT2] (H-KWKKLLKKPLLKKL-NH2)
- MIC (B. subtilis KCTC 2217; KCTC 2217, 18 h): 3.13 µM (≈ 5.52 µg/mL)
- MIC (P. aeruginosa ATCC 27853 [2]): 6.25 µM (≈ 11 µg/mL)
- MIC (A. baumannii KCTC 2508; KCTC 2508, 18 h): 12.5 µM (≈ 22 µg/mL)
- MIC (S. aureus ATCC 25923 [3]): 1.56 µM (≈ 2.75 µg/mL)

Structure (SMILES): CC[C@H](C)[C@H](NC(=O)CN)C(=O)NCC(=O)N[C@@H](C)C(=O)N[C@H](C(=O)N[C@@H](CC(C)C)C(=O)N[C@@H](CCCCN)C(=O)N[C@H](C(=O)N[C@@H](CC(C)C)C(=O)N[C@H](C(=O)N[C@H](C(=O)NCC(=O)N[C@@H](CC(C)C)C(=O)N1CCC[C@H]1C(=O)N[C@@H](C)C(=O)N[C@@H](CC(C)C)C(=O)N[C@H](C(=O)N[C@@H](CO)C(=O)N[C@@H](Cc1c[nH]c2ccccc12)C(=O)N[C@H](C(=O)N[C@@H](CCCCN)C(=O)N[C@@H](CCCNC(=N)N)C(=O)N[C@@H](CCCCN)C(=O)N[C@@H](CCCNC(=N)N)C(=O)N[C@@H](CCC(N)=O)C(=O)N[C@@H](CCC(N)=O)C(N)=O)[C@@H](C)CC)[C@@H](C)CC)[C@@H](C)O)[C@@H](C)O)C(C)C)C(C)C [Melittin, reference compound]
- MIC (B. subtilis KCTC 2217; B. subtilis KCTC 2217, MHB, 2 × 10^5 CFU/mL, 18 h at 37 °C, absorbance 600 nm, triplicate): 0.78 µM (≈ 2.22 µg/mL)
- MIC (A. baumannii KCTC 2508; A. baumannii KCTC 2508, MHB, 2 × 10^5 CFU/mL, 18 h at 37 °C, absorbance 600 nm, triplicate): 1.56 µM (≈ 4.44 µg/mL)
- cytotoxicity (HaCaT cells): highly toxic

Structure (SMILES): CC(C)C[C@H](NC(=O)[C@H](CCCCN)NC(=O)[C@H](CCCCN)NC(=O)[C@H](CC(C)C)NC(=O)[C@H](CC(C)C)NC(=O)[C@H](CCCCN)NC(=O)[C@H](CCCCN)NC(=O)[C@H](CC(C)C)NC(=O)[C@H](CC(C)C)NC(=O)[C@@H]1CCCN1C(=O)[C@H](CCCCN)NC(=O)[C@H](CCCCN)NC(=O)[C@H](CC(C)C)NC(=O)[C@@H](N)CC(C)C)C(N)=O [P5-NT2] (H-LLKKPLLKKLLKKL-NH2)
- MIC (B. subtilis KCTC 2217; KCTC 2217, 18 h): 1.56 µM (≈ 2.61 µg/mL)
- MIC (P. aeruginosa ATCC 27853 [2]): 3.13 µM (≈ 5.24 µg/mL)
- MIC (A. baumannii KCTC 2508; KCTC 2508, 18 h): 12.5 µM (≈ 20.9 µg/mL)
- MIC (S. aureus ATCC 25923 [3]): 1.56 µM (≈ 2.61 µg/mL)

Structure (SMILES): CC(C)C[C@H](NC(=O)[C@H](CC(C)C)NC(=O)[C@H](CCCCN)NC(=O)[C@H](CCCCN)NC(=O)[C@H](CC(C)C)NC(=O)[C@H](CC(C)C)NC(=O)[C@@H]1CCCN1C(=O)[C@H](CCCCN)NC(=O)[C@H](CCCCN)NC(=O)[C@H](CC(C)C)NC(=O)[C@H](CC(C)C)NC(=O)[C@H](CCCCN)NC(=O)[C@H](CCCCN)NC(=O)[C@H](Cc1c[nH]c2ccccc12)NC(=O)[C@@H](N)CCCCN)C(=O)N[C@@H](CCCCN)C(N)=O [P5-CT1] (H-KWKKLLKKPLLKKLLK-NH2)
- MIC (S. aureus ATCC 25923 [1]): 0.78 µM (≈ 1.56 µg/mL)
- MIC (B. subtilis KCTC 2217; KCTC 2217, 18 h): 1.56 µM (≈ 3.13 µg/mL)
- MIC (P. aeruginosa ATCC 27853 [2]): 1.56 µM (≈ 3.13 µg/mL)
- MIC (A. baumannii KCTC 2508; KCTC 2508, 18 h): 3.13 µM (≈ 6.27 µg/mL)
- MIC (S. aureus ATCC 25923 [3]): 1.56 µM (≈ 3.13 µg/mL)
